The target of this experiment is T1, BRM (Homo sapiens, UniProt P51531).
T1 construct: In-Cell Western Screen of BRM Degradation in SW1573 Cells; endogenous in cells; host or cells: SW1573
Kind of experiment: In-cell Western screen of BRM degradation in SW1573 cells (Dmax and DC50). In kind it is cell-based. The following applies: for Dmax: SW1573, % degraded, when tested at the top concentration of between 0.3 and 10 μM, read-out: BRM Dmax (%); for DC50: target protein degradation, read-out: BRM DC50. In a few lines:
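SW1573 cells were treated with compound overnight (18-20 h; final DMSO 0.1%), then fixed in 4% PFA, permeabilized with Triton X-100 and blocked. BRM was detected by in-cell Western using 800 nm anti-rabbit and 680 nm anti-mouse secondaries, and Dmax and DC50 were derived from the LI-COR Odyssey signal.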

Each structure is given as a SMILES string.

T1 sequence (P51531 whole entry): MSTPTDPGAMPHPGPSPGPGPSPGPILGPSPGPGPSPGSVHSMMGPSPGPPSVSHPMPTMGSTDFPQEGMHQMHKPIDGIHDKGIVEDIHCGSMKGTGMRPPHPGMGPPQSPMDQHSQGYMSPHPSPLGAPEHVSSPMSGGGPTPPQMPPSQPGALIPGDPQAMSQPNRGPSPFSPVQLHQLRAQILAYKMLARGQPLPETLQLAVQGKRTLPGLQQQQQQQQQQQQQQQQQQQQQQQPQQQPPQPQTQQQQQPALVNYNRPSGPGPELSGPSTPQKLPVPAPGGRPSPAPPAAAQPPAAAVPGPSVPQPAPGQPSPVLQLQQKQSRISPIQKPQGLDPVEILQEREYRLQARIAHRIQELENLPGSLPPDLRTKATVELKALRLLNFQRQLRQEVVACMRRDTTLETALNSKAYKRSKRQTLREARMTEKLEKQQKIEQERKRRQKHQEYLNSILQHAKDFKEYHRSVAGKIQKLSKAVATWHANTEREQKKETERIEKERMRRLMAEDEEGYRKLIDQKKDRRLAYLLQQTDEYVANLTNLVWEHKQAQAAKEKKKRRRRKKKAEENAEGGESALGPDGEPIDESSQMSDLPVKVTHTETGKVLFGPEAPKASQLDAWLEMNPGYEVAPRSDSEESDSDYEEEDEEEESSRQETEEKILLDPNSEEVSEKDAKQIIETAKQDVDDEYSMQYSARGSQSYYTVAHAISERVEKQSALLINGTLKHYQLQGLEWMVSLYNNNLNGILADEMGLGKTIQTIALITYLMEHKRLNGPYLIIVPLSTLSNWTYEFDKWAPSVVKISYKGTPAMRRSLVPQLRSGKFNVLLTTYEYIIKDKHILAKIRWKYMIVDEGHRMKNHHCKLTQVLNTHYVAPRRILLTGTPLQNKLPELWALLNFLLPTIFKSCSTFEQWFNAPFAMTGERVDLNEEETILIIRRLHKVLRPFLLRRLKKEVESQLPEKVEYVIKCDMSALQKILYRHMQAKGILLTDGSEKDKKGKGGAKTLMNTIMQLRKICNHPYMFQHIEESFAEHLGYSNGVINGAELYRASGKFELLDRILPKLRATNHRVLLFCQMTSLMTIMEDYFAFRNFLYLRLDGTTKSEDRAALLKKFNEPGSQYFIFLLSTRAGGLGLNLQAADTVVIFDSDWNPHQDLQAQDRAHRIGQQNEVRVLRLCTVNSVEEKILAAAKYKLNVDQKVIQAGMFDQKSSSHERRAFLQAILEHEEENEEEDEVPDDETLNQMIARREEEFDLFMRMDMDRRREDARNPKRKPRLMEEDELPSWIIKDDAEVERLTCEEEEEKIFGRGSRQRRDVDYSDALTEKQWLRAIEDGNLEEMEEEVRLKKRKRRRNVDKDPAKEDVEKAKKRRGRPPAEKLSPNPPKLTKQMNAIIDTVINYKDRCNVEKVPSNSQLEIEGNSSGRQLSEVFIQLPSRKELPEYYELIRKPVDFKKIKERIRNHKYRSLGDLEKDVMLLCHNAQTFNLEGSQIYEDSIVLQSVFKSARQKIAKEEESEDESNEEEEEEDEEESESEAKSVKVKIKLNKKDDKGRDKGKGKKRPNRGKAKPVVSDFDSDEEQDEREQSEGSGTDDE

For the molecule `Cc1ncsc1-c1ccc([C@H](C)NC(=O)[C@@H]2C[C@@H](O)CN2C(=O)[C@@H](c2cc(OCCC3CCN(C(=O)[C@H]4C[C@@H](CN5CCC([C@@H](C)n6cc(-c7cc(-c8ccccc8O)nnc7N)cn6)CC5)C4)CC3)no2)C(C)C)cc1` [compound 452, (2S,4R)-1-((R)-2-(3-(2-(1-((1S,3S)-3-((4-((R)-1-(4-(3-amino-6-(2-hydroxyphenyl)pyridazin-4-yl)-1H-pyrazol-1-yl)ethyl)piperidin-1-yl)methyl)cyclobutane-1-carbonyl)piperidin-4-yl)ethoxy)isoxazol-5-yl)-3-methylbutanoyl)-4-hydroxy-N-((S)-1-(4-(4-methylthiazol-5-yl)phenyl)ethyl)pyrrolidine-2-carboxamide], the maximal degradation (Dmax) was above 75% and the DC50 was in the range of 10 to 30 nM.
`Cc1ncsc1-c1ccc([C@H](C)NC(=O)[C@@H]2C[C@@H](O)CN2C(=O)[C@H](c2cc(OCCC3CCN(C(=O)[C@H]4C[C@H](CN5CCC([C@H](C)n6cc(-c7cc(-c8ccccc8O)nnc7N)cn6)CC5)C4)CC3)no2)C(C)C)cc1` [compound 453, (2S,4R)-1-((S)-2-(3-(2-(1-((1S,3S)-3-((4-((S)-1-(4-(3-amino-6-(2-hydroxyphenyl)pyridazin-4-yl)-1H-pyrazol-1-yl)ethyl)piperidin-1-yl)methyl)cyclobutane-1-carbonyl)piperidin-4-yl)ethoxy)isoxazol-5-yl)-3-methylbutanoyl)-4-hydroxy-N-((S)-1-(4-(4-methylthiazol-5-yl)phenyl)ethyl)pyrrolidine-2-carboxamide]: the Dmax is above 75% and the half-maximal degradation concentration (DC50) was below 2.5 nM.
In the case of `Cc1ncsc1-c1ccc([C@H](C)NC(=O)[C@@H]2C[C@@H](O)CN2C(=O)[C@@H](c2cc(OCCC3CCN(C(=O)[C@H]4C[C@H](CN5CCC([C@H](C)n6cc(-c7cc(-c8ccccc8O)nnc7N)cn6)CC5)C4)CC3)no2)C(C)C)cc1` [compound 454, (2S,4R)-1-((R)-2-(3-(2-(1-((1S,3R)-3-((4-((S)-1-(4-(3-amino-6-(2-hydroxyphenyl)pyridazin-4-yl)-1H-pyrazol-1-yl)ethyl)piperidin-1-yl)methyl)cyclobutane-1-carbonyl)piperidin-4-yl)ethoxy)isoxazol-5-yl)-3-methylbutanoyl)-4-hydroxy-N-((S)-1-(4-(4-methylthiazol-5-yl)phenyl)ethyl)pyrrolidine-2-carboxamide], the DC50 was above 30 nM.
Consider `Cc1ncsc1-c1ccc([C@H](C)NC(=O)[C@@H]2C[C@@H](O)CN2C(=O)[C@H](c2cc(OCCC3CCN(C(=O)[C@H]4C[C@H](CN5CCC([C@@H](C)n6cc(-c7cc(-c8ccccc8O)nnc7N)cn6)CC5)C4)CC3)no2)C(C)C)cc1` [compound 455, (2S,4R)-1-((S)-2-(3-(2-(1-((1R,3S)-3-((4-((R)-1-(4-(3-amino-6-(2-hydroxyphenyl)pyridazin-4-yl)-1H-pyrazol-1-yl)ethyl)piperidin-1-yl)methyl)cyclobutane-1-carbonyl)piperidin-4-yl)ethoxy)isoxazol-5-yl)-3-methylbutanoyl)-4-hydroxy-N-((S)-1-(4-(4-methylthiazol-5-yl)phenyl)ethyl)pyrrolidine-2-carboxamide], for which the Dmax is above 75% and the DC50 is below 2.5 nM.
Regarding `Cc1ncsc1-c1ccc([C@H](C)NC(=O)[C@@H]2C[C@@H](O)CN2C(=O)[C@@H](c2cc(OCCC3CCN(C(=O)[C@H]4C[C@H](CN5CCC([C@@H](C)n6cc(-c7cc(-c8ccccc8O)nnc7N)cn6)CC5)C4)CC3)no2)C(C)C)cc1` [compound 456, (2S,4R)-1-((R)-2-(3-(2-(1-((1R,3R)-3-((4-((R)-1-(4-(3-amino-6-(2-hydroxyphenyl)pyridazin-4-yl)-1H-pyrazol-1-yl)ethyl)piperidin-1-yl)methyl)cyclobutane-1-carbonyl)piperidin-4-yl)ethoxy)isoxazol-5-yl)-3-methylbutanoyl)-4-hydroxy-N-((S)-1-(4-(4-methylthiazol-5-yl)phenyl)ethyl)pyrrolidine-2-carboxamide], the DC50 is above 30 nM.
For `Cc1ncsc1-c1ccc([C@H](C)NC(=O)[C@@H]2C[C@@H](O)CN2C(=O)[C@H](c2cc(N3CCN(CC4CCN(C[C@H]5C[C@H](Oc6cc(N7C8CCC7CN(c7cc(-c9ccccc9O)nnc7N)C8)ccn6)C5)CC4)CC3)no2)C(C)C)cc1` [compound 457, (2S,4R)-1-((2S)-2-(3-(4-((1-(((1r,3r)-3-((4-(3-(3-amino-6-(2-hydroxyphenyl)pyridazin-4-yl)-3,8-diazabicyclo[3.2.1]octan-8-yl)pyridin-2-yl)oxy)cyclobutyl)methyl)piperidin-4-yl)methyl)piperazin-1-yl)isoxazol-5-yl)-3-methylbutanoyl)-4-hydroxy-N-((S)-1-(4-(4-methylthiazol-5-yl)phenyl)ethyl)pyrrolidine-2-carboxamide], the Dmax is above 75% and the DC50 was below 2.5 nM.
As for `Cc1ncsc1-c1ccc([C@H](C)NC(=O)[C@@H]2C[C@@H](O)CN2C(=O)[C@@H](c2cc(N3CCN(CC4CCN(C[C@H]5C[C@H](Oc6cc(N7C8CCC7CN(c7cc(-c9ccccc9O)nnc7N)C8)ccn6)C5)CC4)CC3)no2)C(C)C)cc1` [compound 458, (2S,4R)-1-((2R)-2-(3-(4-((1-(((1r,3r)-3-((4-(3-(3-amino-6-(2-hydroxyphenyl)pyridazin-4-yl)-3,8-diazabicyclo[3.2.1]octan-8-yl)pyridin-2-yl)oxy)cyclobutyl)methyl)piperidin-4-yl)methyl)piperazin-1-yl)isoxazol-5-yl)-3-methylbutanoyl)-4-hydroxy-N-((S)-1-(4-(4-methylthiazol-5-yl)phenyl)ethyl)pyrrolidine-2-carboxamide], the Dmax was above 75% and the 50% degradation concentration (DC50) is below 2.5 nM.
The like results for `Cc1ncsc1-c1ccc([C@H](C)NC(=O)[C@@H]2C[C@@H](OP(=O)(O)O)CN2C(=O)[C@@H](c2cc(OCCN3CCC(O[C@H]4C[C@H](Oc5cc(N6C7CCC6CN(c6cc(-c8ccccc8O)nnc6N)C7)ccn5)C4)CC3)no2)C(C)C)cc1` [compound 459, (3R,5S)-1-((2R)-2-(3-(2-(4-((1r,3R)-3-((4-(3-(3-amino-6-(2-hydroxyphenyl)pyridazin-4-yl)-3,8-diazabicyclo[3.2.1]octan-8-yl)pyridin-2-yl)oxy)cyclobutoxy)piperidin-1-yl)ethoxy)isoxazol-5-yl)-3-methylbutanoyl)-5-(((S)-1-(4-(4-methylthiazol-5-yl)phenyl)ethyl)carbamoyl)pyrrolidin-3-yl dihydrogen phosphate] were, in that order, above 75% and below 2.5 nM.
With `COCCOCCOCCOCCOCCOCCOCCOCCOCCOCCOCCOCCOCCOCCOCCOCCOCCOCCOCCOCCOCCOCCOC(=O)CCC(=O)O[C@@H]1C[C@@H](C(=O)N[C@@H](C)c2ccc(-c3scnc3C)cc2)N(C(=O)[C@@H](c2cc(OCCN3CCC(O[C@H]4C[C@H](Oc5cc(N6C7CCC6CN(c6cc(-c8ccccc8O)nnc6N)C7)ccn5)C4)CC3)no2)C(C)C)C1` [compound 460, (3R,5S)-1-((2R)-2-(3-(2-(4-((1r,3R)-3-((4-(3-(3-amino-6-(2-hydroxyphenyl)pyridazin-4-yl)-3,8-diazabicyclo[3.2.1]octan-8-yl)pyridin-2-yl)oxy)cyclobutoxy)piperidin-1-yl)ethoxy)isoxazol-5-yl)-3-methylbutanoyl)-5-(((S)-1-(4-(4-methylthiazol-5-yl)phenyl)ethyl)carbamoyl) pyrrolidin-3-yl (2,5,8,11,14,17,20,23,26,29,32,3 5,38,41,44,47,50,53,56,59,62,65-docosaoxaheptahexacontan-67-yl) succinate], the Dmax was above 75% and the DC50 is below 2.5 nM.
The like results for `Cc1ncsc1-c1ccc([C@H](C)NC(=O)[C@@H]2C[C@@H](O)CN2C(=O)[C@@H](c2cc(OCCN3CCC(O[C@H]4C[C@H](Oc5cccc(N6C7CCC6CN(c6cc(-c8ccccc8O)nnc6N)C7)c5)C4)CC3)no2)C(C)C)cc1` [compound 462, (2S,4R)-1-((2R)-2-(3-(2-(4-((1r,3R)-3-(3-(3-(3-amino-6-(2-hydroxyphenyl)pyridazin-4-yl)-3,8-diazabicyclo[3.2.1]octan-8-yl)phenoxy)cyclobutoxy)piperidin-1-yl)ethoxy)isoxazol-5-yl)-3-methylbutanoyl)-4-hydroxy-N-((S)-1-(4-(4-methylthiazol-5-yl)phenyl)ethyl)pyrrolidine-2-carboxamide] were, in that order, above 75% and below 2.5 nM.
With `Cc1ncsc1-c1ccc([C@H](C)NC(=O)[C@@H]2C[C@@H](O)CN2C(=O)[C@H](c2cc(OCCN3CCC(O[C@H]4C[C@H](Oc5nccc(N6C7CCC6CN(c6cc(-c8ccccc8O)nnc6N)C7)n5)C4)CC3)no2)C(C)C)cc1` [compound 463, (2S,4R)-1-((2S)-2-(3-(2-(4-((1r,3S)-3-((4-(3-(3-amino-6-(2-hydroxyphenyl)pyridazin-4-yl)-3,8-diazabicyclo[3.2.1]octan-8-yl)pyrimidin-2-yl)oxy)cyclobutoxy)piperidin-1-yl)ethoxy)isoxazol-5-yl)-3-methylbutanoyl)-4-hydroxy-N-((S)-1-(4-(4-methylthiazol-5-yl)phenyl)ethyl)pyrrolidine-2-carboxamide], the DC50 was above 30 nM.
As for `Cc1ncsc1-c1ccc([C@H](C)NC(=O)[C@@H]2C[C@@H](O)CN2C(=O)[C@@H](c2cc(OCCN3CCC(O[C@H]4C[C@H](Oc5nccc(N6C7CCC6CN(c6cc(-c8ccccc8O)nnc6N)C7)n5)C4)CC3)no2)C(C)C)cc1` [compound 464, (2S,4R)-1-((2R)-2-(3-(2-(4-((1r,3R)-3-((4-(3-(3-amino-6-(2-hydroxyphenyl)pyridazin-4-yl)-3,8-diazabicyclo[3.2.1]octan-8-yl)pyrimidin-2-yl)oxy)cyclobutoxy)piperidin-1-yl)ethoxy)isoxazol-5-yl)-3-methylbutanoyl)-4-hydroxy-N-((S)-1-(4-(4-methylthiazol-5-yl)phenyl)ethyl)pyrrolidine-2-carboxamide], the Dmax is above 75% and the DC50 was below 2.5 nM.

The Dmax is the largest share of the target that was removed. What is called DC50 is the concentration at which degradation of the target reaches its halfway point.

These data come from patent US12539292B2, “BRM targeting compounds and associated methods of use” (Arvinas Operations, Inc., priority 2018, dated 2026).
